Reference: US6783774B1 (priority 1990, dated 2004)
“Also recorded” adds a separate entry of the source.

Columns and labels:
finger scratch bleeding = test: finger scratched to bleed, substance applied to bleeding site; type: in vivo, human; settings: for black blood coagulation / black color formation: derivatives in powder or gel or liquid form; for stopping of bleeding: powder or gel or liquid form
From the text: Myself, finger little scratched, slightly bleeds.

[1] = test system: surgical / dental bleeding; test: clinical evidence: topical powder on surgical and dental bleeding in patients; type: in vivo, human; settings: person
Experimental: Person, scalp tumor excision, massive bleeding when the tumor is excised.
Person, acute renal failure, A-V fistula formation operation, masive bleeding. The operation of stopping bleeding consists of combing the powder with pressing with gauzes. […] At the end of the operation, most of black blood coagulation is wiped out with 4×4 gauze, and rinsed with Ringer's solution. It takes totally 5 minutes to stop the bleeding completely, as the surgeon keeps wiping away the coagulation. The patient's conditions are particularly well, better than without using this powder.
Person, skin contracture on the palm, which needs to be removed, and it requires skin graft. When the skin graft is removed from the hand, massive bleeding occurs. On applying sufficient powder to the bleeding area topically, it appears black coagulation on contact. […] Those that appears more black area indicate the more powder mixed up with the blood. Suture going on.
Person, paraanal excision, bleeding when it is opened up. […] Those that appears white are the powder that are not mixed up with the blood. Suture going on.
Person, paranal abscess Excision, massive bleeding when it is opened. […] The white color is the powder instantly not mixed up with the blood yet. Lastly, insert the long gauze into the anus.
Person, chronic hepatitis, has bleeding tendency, extraction of teeth causes massive bleeding.

bleeding nostril = test: nostril bleeding in rat; type: in vivo
gastric bleeding area = test: bleeding area in rat after histamine-induced gastric acid secretion; type: in vivo; settings: rat after histamine injection; topical to bleeding area
From the text: Thus this powder can treat the gastric ulcer bleeding when ingested orally.

venous bleeding = test: vein bleeding in rat, one vein cut off; type: in vivo
human blood = test: test tube black blood coagulation of human blood
From the text: The present invention is directed to a method for stopping bleeding, comprising administering powdered D,L-threo-hex-2-enono-1,4-lactone tablets thereof to the wound site in an amount of 0.1568 grams for every milliliter of blood. This powder has a very potent coagulation action to stop bleeding when spraying topically on the bleeding area for any normal or diseased patients. When the powder comes in contact with the blood, the black tar like material is formed, and later becomes solid. The amount of the powder that is needed to react completely with the blood is proportional to the amount of the blood that comes out of the blood vessels. […] The artery bleeding needs much more this powder of interest. […] This is the same for normal, colon cancer and hemophilia patients; 1 ml of normal blood needs 0.1568 grams of D,L-threo-hex-2-enono-1,4-lactone powder, 1 ml of colon cancer needs 0.1568 grams of D,L-threo-hex-2-enono-1,4-lactone, 1 ml of hemophilia blood needs 0.1568 grams of D,L-threo-hex-2-enono-1,4-lactone. Sufficient powdered D,L-threo-hex-2-enono-1,4-lactone is particularly useful to stop bleeding in the case of diffuse capillary oozing and mistakenly cut off artery or arteries that can not be found during massive bleeding so as to save the patients's lives therefor. When D,L-threo-hex-2-enono-1,4-lactone is absorbed into the system, it is good for health by making the leucocytes stronger and slowing the aging process etc. However, at the end of operation before closure, the excessive black tar gel like material can be wiped away with Ringer's solution. Normal, liver Disease, Colon Cancer and Hemophilia Blood When tested in the tube, 1 milliliter of human blood requires 0.1568 grams of a composition comprising powdered D,L-threo-hex-2-enono-1,4-lactone to form black blood coagulation by shaking the tube with hand or stirrer machine. It takes 6 minutes to cause the black blood coagulation unmobile in the test tube for normal, liver diseases, colon cancer and hemophilia blood respectively.

[2] = test system: massive bleeding of femoral artery; test: femoral artery bleeding in rat, powder poured topically; type: in vivo
Experimental: Sufficient composition comprising powdered D,L-threo-hex-2-enono-1,4-lactone and excipients stops massive bleeding of femoral artery on contact when femoral artery of a rat is cut off In this case of artery on contact when femoral artery of a rat is cut off. In this case of artery bleeding, it is administered topically by pouring instead of spraying. […] Those white spots indicate the powder that is not yet mixed up with the blood. The gel forms first on the surface of the pond of blood, that stops the fluid moving. If stirring the blood to break through the surface film like structure that keeps the blood fluid from moving when the powder is insufficient, it will bleed again, but much slower than before pouring the powder into the bleeding area; adding sufficient powder into the blood, stirring makes the powder molecules well saturated with the hemoglobin and plasma protein molecules and thus forming the concentrated black gel like structure.

capillary bleeding = capillary bleeding in rat, one capillary cut off; type: in vivo

## D,L-threo-hex-2-enono-1,4-lactone-2-propane
Finger scratch bleeding
  black blood coagulation / black color formation: the black blood coagulation was formed
  stopping of bleeding: bleeding was stopped on contact

## O=C1OC(C(O)CO)C(O)=C1OP(=O)(O)O [D,L-threo-hex-enono-1,4-lactone-2-phosphate]
Finger scratch bleeding
  black blood coagulation / black color formation: the black blood coagulation was formed
  stopping of bleeding: bleeding was stopped on contact

## CCCCCCCCCCCCCCCC(=O)OCC(O)C1OC(=O)C(O)=C1O [D,L-threo-hex-2-enono-1,4-lactone-6-palimitate]
Finger scratch bleeding
  black blood coagulation / black color formation: the black blood coagulation was formed
  stopping of bleeding: bleeding was stopped on contact

## O=C1OC(C(O)CO)C(O)=C1O [D,L-threo-hex-2-enono-1,4-lactone]
[1]; A-V fistula plasty, acute renal failure, powder plus gauze pressing, coagulation repeatedly wiped away
  time to stop the bleeding completely: 5 min
[1]; extraction of teeth, chronic hepatitis, bleeding tendency
  stopping of bleeding: the bleeding in the socket stops on contact
[1]; extraction of tooth
  stopping of bleeding: the bleeding stops on contact
[1]; extraction of tooth, wiped out in 10 seconds
  persistence of stopped bleeding after wiping out black coagulation: stopped bleeding still persisted
[1]; paraanal abscess excision, massive bleeding, sprayed
  black blood coagulation formation: the black color is formed on contact
[1]; paraanal abscess excision, sprayed
  stopping of bleeding: it stops bleeding by forming black blood coagulation on contact
[1]; scalp tumor excision, massive bleeding, sprayed
  stopping of bleeding: the bleeding atops on contact
[1]; skin contracture excision with skin graft, massive bleeding
  stopping of bleeding: Bleeding stops at the same time as the black coagulation forms
Finger scratch bleeding
  black blood coagulation / black color formation: the black color forms on contact
Bleeding nostril; rat nostril cut slightly
  amount of powder applied that stops bleeding: 0.0037 grams
Bleeding nostril; rat nostril, 0.0037 grams
  stopping of bleeding: the bleeding stops on contact
Gastric bleeding area
  black coagulation formation: the black coagulation formed, but slower than normal
Venous bleeding; about 1½ minutes after wiping away
  bleeding after black coagulation is wiped away: no more bleeding
Venous bleeding; rat, one vein cut off
  amount of powder needed to stop bleeding: about 0.0224 grams
Venous bleeding; rat, one venous bleeding
  stopping of bleeding: stop bleeding on contact; also recorded: within one second
Human blood; 0.1568 grams per 1 ml normal or diseased human blood
  time after which mixture does not move by shaking or pouring: 6 min
Human blood; colon cancer blood
  time to cause black blood coagulation unmobile in the test tube: 6 min
Human blood; hemophilia blood
  time to cause black blood coagulation unmobile in the test tube: 6 min
Human blood; liver diseases blood
  time to cause black blood coagulation unmobile in the test tube: 6 min
Human blood; normal blood
  time to cause black blood coagulation unmobile in the test tube: 6 min
Human blood; per 1 ml of colon cancer blood
  amount needed: 0.1568 grams
Human blood; per 1 ml of hemophilia blood
  amount needed: 0.1568 grams
Human blood; per 1 ml of normal blood
  amount needed: 0.1568 grams
Human blood; per 1 ml of normal or diseased human blood, test tube
  amount required to form black blood coagulation: 0.1568 grams
[2]; after 5-6 minutes
  bleeding after sticky tar like structure is wiped away: no bleeding at all
[2]; as soon as powder contacts the blood
  formation of black tar like material: formed in one second
[2]; rat femoral artery bleeding, sufficient powder
  time to stop bleeding: within one second
[2]; rat femoral artery cut off, poured topically, amount varies with rats
  amount of powder usually sufficient to stop bleeding: 0.1344 grams
Capillary bleeding; after 1 minute from adding the powder
  bleeding after adding the powder: no more bleeding at all
Capillary bleeding; rat, one capillary bleeding
  stopping of bleeding: stops the bleeding on contact; also recorded: within one second
Capillary bleeding; rat, one capillary cut off
  amount of powder that stops bleeding: about 0.0112 grams

## O=C1OC(C(O)CO)C(O)=C1OC(=O)c1ccccc1 [D,L-threo-hex-2-enono-1,4-lactone-2-benzoate]
Finger scratch bleeding
  black blood coagulation / black color formation: the black blood coagulation was formed
  stopping of bleeding: bleeding was stopped on contact
